What was measured:
Format in all cases: in vivo
[1] = tested on: upland rice (Oryza sp., var.Tebonnet, RICE); experiment: Pre-emerge greenhouse screening, crop safety (phytotoxicity rating); settings: 14 days after application
Method in brief: (§1)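 Pre-emerge: seeds sown 1 day before spray; acetone solutions, 15–1000 g ai/ha, track sprayer; soil watered after application, then bottom-watered. Post-emerge: plants at 2-3 leaf stage (sown 8-21 days prior), 0.25% v/v non-ionic surfactant added, bottom-watered only. Rated 0-100 at 14 DAA.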

[2] = tested on: field corn (Zea mays L., var. Dekalb 535, CORN); experiment: as above; settings: 14 days after application
Method in brief: as §1

[3] = tested on: soybean (Glycine max L., var. Pella 86, SOY); experiment: as above; settings: 14 days after application
Method in brief: as §1

[4] = tested on: field corn (Zea mays L., var. Dekalb 535, CORN); experiment: Post-emerge greenhouse screening, crop safety / corn selectivity (phytotoxicity rating); settings: 14 days after application
Method in brief: as §1

[5] = tested on: ivyleaf morningglory (Ipomoea hederacea, IPOHE); experiment: Pre-emerge greenhouse herbicide activity screening, phytotoxicity rating; settings: 14 days after application
Method in brief: as §1

[6] = tested on: johnsongrass (Sorghum halepense, SORHA); experiment: as above; settings: 14 days after application
Method in brief: as §1

[7] = tested on: redroot pigweed (Amaranthus retroflexus, AMARE); experiment: as above; settings: 14 days after application
Method in brief: as §1

[8] = tested on: barnyardgrass (Echinochloa crus-galli, ECHCG); experiment: as above; settings: 14 days after application
Method in brief: as §1

[9] = tested on: green foxtail (Setaria viridis, SETVI); experiment: as above; settings: 14 days after application
Method in brief: as §1

[10] = tested on: sicklepod (Cassia obtusifolia, CASOB); experiment: as above; settings: 14 days after application
Method in brief: as §1

[11] = tested on: common ragweed (Ambrosia artemisiifolia L., AMBEL); experiment: as above; settings: 14 days after application
Method in brief: as §1

[12] = tested on: lambsquarters (Chenopodium album, CHEAL); experiment: as above; settings: 14 days after application
Method in brief: as §1

[13] = tested on: velvetleaf (Abutilon theophrasti, ABUTH); experiment: as above; settings: 14 days after application
Method in brief: as §1

[14] = tested on: large crabgrass (Digitaria sanguinalis, DIGSA); experiment: as above; settings: 14 days after application
Method in brief: as §1

[15] = tested on: ivyleaf morningglory (Ipomoea hederacea, IPOHE); experiment: Post-emerge greenhouse herbicide activity screening, phytotoxicity rating; settings: 14 days after application
Method in brief: as §1

[16] = tested on: johnsongrass (Sorghum halepense, SORHA); experiment: as above; settings: 14 days after application
Method in brief: as §1

[17] = tested on: redroot pigweed (Amaranthus retroflexus, AMARE); experiment: as above
Method in brief: as §1

[18] = tested on: barnyardgrass (Echinochloa crus-galli, ECHCG); experiment: as above; settings: 14 days after application
Method in brief: as §1

[19] = tested on: green foxtail (Setaria viridis, SETVI); experiment: as above
Method in brief: as §1

[20] = tested on: sicklepod (Cassia obtusifolia, CASOB); experiment: as above
Method in brief: as §1

[21] = tested on: common ragweed (Ambrosia artemisiifolia L., AMBEL); experiment: as above
Method in brief: as §1

[22] = tested on: lambsquarters (Chenopodium album, CHEAL); experiment: as above
Method in brief: as §1

[23] = tested on: velvetleaf (Abutilon theophrasti, ABUTH); experiment: as above; settings: 14 days after application
Method in brief: as §1

[24] = tested on: large crabgrass (Digitaria sanguinalis, DIGSA); experiment: as above; settings: 14 days after application
Method in brief: as §1

[25] = tested on: upland rice (Oryza sp., var.Tebonnet, RICE); experiment: Post-emerge greenhouse screening, crop safety (phytotoxicity rating); settings: 14 days after application
Method in brief: as §1

[26] = tested on: soybean (Glycine max L., var. Pella 86, SOY); experiment: as above; settings: 14 days after application
Method in brief: as §1

[27] = 125 g ai/ha, 14 days after application
[28] = 250 g ai/ha, 14 days after application

Cn1c(=S)n(C)c(=O)n(-c2cc(Oc3ncccn3)c(Cl)cc2F)c1=O [Compound 2-1, 3-[4-Chloro-2-fluoro-5-(2-pyrimidinyloxy)phenyl]-5,6-dihydro-1,5-dimethyl-6-thioxo-1,3,5-triazine-2,4(1H,3H)-dione]
RICE crop damage, phytotoxicity rating (0-100 scale) ([1]; 125 g ai/ha): 99
RICE crop damage, phytotoxicity rating (0-100 scale) ([1]; 250 g ai/ha): 99
CORN crop damage, phytotoxicity rating (0-100 scale) ([2]; 125 g ai/ha): 50
CORN crop damage, phytotoxicity rating (0-100 scale) ([2]; 250 g ai/ha): 65
SOY crop damage, phytotoxicity rating (0-100 scale) ([3]; 125 g ai/ha): 90
SOY crop damage, phytotoxicity rating (0-100 scale) ([3]; 250 g ai/ha): 100
CORN crop damage, phytotoxicity rating (0-100 scale) ([4]; 125 g ai/ha): 0
CORN crop damage, phytotoxicity rating (0-100 scale) ([4]; 250 g ai/ha): 5
IPOHE phytotoxicity rating (0-100 scale) ([5]; 125 g ai/ha): 100
IPOHE phytotoxicity rating (0-100 scale) ([5]; 250 g ai/ha): 100
SORHA phytotoxicity rating (0-100 scale) ([6]; 125 g ai/ha): 100
SORHA phytotoxicity rating (0-100 scale) ([6]; 250 g ai/ha): 100
AMARE phytotoxicity rating (0-100 scale) ([7]; 125 g ai/ha): 100
AMARE phytotoxicity rating (0-100 scale) ([7]; 250 g ai/ha): 100
ECHCG phytotoxicity rating (0-100 scale) ([8]; 125 g ai/ha): 100
ECHCG phytotoxicity rating (0-100 scale) ([8]; 250 g ai/ha): 100
SETVI phytotoxicity rating (0-100 scale) ([9]; 125 g ai/ha): 100
SETVI phytotoxicity rating (0-100 scale) ([9]; 250 g ai/ha): 100
CASOB phytotoxicity rating (0-100 scale) ([10]; 125 g ai/ha): 100
CASOB phytotoxicity rating (0-100 scale) ([10]; 250 g ai/ha): 100
AMBEL phytotoxicity rating (0-100 scale) ([11]; 125 g ai/ha): 100
AMBEL phytotoxicity rating (0-100 scale) ([11]; 250 g ai/ha): 100
CHEAL phytotoxicity rating (0-100 scale) ([12]; 125 g ai/ha): 100
CHEAL phytotoxicity rating (0-100 scale) ([12]; 250 g ai/ha): 100
ABUTH phytotoxicity rating (0-100 scale) ([13]; 125 g ai/ha): 100
ABUTH phytotoxicity rating (0-100 scale) ([13]; 250 g ai/ha): 100
DIGSA phytotoxicity rating (0-100 scale) ([14]; 125 g ai/ha): 100
DIGSA phytotoxicity rating (0-100 scale) ([14]; 250 g ai/ha): 100
IPOHE phytotoxicity rating (0-100 scale) ([15]; 125 g ai/ha): 80
IPOHE phytotoxicity rating (0-100 scale) ([15]; 250 g ai/ha): 99
SORHA phytotoxicity rating (0-100 scale) ([16]; 125 g ai/ha): 60
SORHA phytotoxicity rating (0-100 scale) ([16]; 250 g ai/ha): 70
AMARE phytotoxicity rating (0-100 scale) ([17]; 31.3 g ai/ha): 100
AMARE phytotoxicity rating (0-100 scale) ([17]; 62.5 g ai/ha): 100
AMARE phytotoxicity rating (0-100 scale) [17, 27]: 100
AMARE phytotoxicity rating (0-100 scale) [17, 28]: 100
ECHCG phytotoxicity rating (0-100 scale) ([18]; 125 g ai/ha): 50
ECHCG phytotoxicity rating (0-100 scale) ([18]; 250 g ai/ha): 80
SETVI phytotoxicity rating (0-100 scale) ([19]; 31.3 g ai/ha): 0
SETVI phytotoxicity rating (0-100 scale) ([19]; 62.5 g ai/ha): 60
SETVI phytotoxicity rating (0-100 scale) [19, 27]: 70
SETVI phytotoxicity rating (0-100 scale) [19, 28]: 80
CASOB phytotoxicity rating (0-100 scale) ([20]; 31.3 g ai/ha): 60
CASOB phytotoxicity rating (0-100 scale) ([20]; 62.5 g ai/ha): 60
CASOB phytotoxicity rating (0-100 scale) [20, 27]: 65
CASOB phytotoxicity rating (0-100 scale) [20, 28]: 75
AMBEL phytotoxicity rating (0-100 scale) ([21]; 31.3 g ai/ha): 50
AMBEL phytotoxicity rating (0-100 scale) ([21]; 62.5 g ai/ha): 50
AMBEL phytotoxicity rating (0-100 scale) [21, 27]: 60
AMBEL phytotoxicity rating (0-100 scale) [21, 28]: 65
CHEAL phytotoxicity rating (0-100 scale) ([22]; 31.3 g ai/ha): 100
CHEAL phytotoxicity rating (0-100 scale) ([22]; 62.5 g ai/ha): 100
CHEAL phytotoxicity rating (0-100 scale) [22, 27]: 100
CHEAL phytotoxicity rating (0-100 scale) [22, 28]: 100
ABUTH phytotoxicity rating (0-100 scale) ([23]; 125 g ai/ha): 100
ABUTH phytotoxicity rating (0-100 scale) ([23]; 250 g ai/ha): 100
DIGSA phytotoxicity rating (0-100 scale) ([24]; 125 g ai/ha): 55
DIGSA phytotoxicity rating (0-100 scale) ([24]; 250 g ai/ha): 55
RICE crop damage, phytotoxicity rating (0-100 scale) ([25]; 125 g ai/ha): 15
RICE crop damage, phytotoxicity rating (0-100 scale) ([25]; 250 g ai/ha): 40
SOY crop damage, phytotoxicity rating (0-100 scale) ([26]; 125 g ai/ha): 50
SOY crop damage, phytotoxicity rating (0-100 scale) ([26]; 250 g ai/ha): 65

Cn1c(=S)n(C)c(=O)n(-c2cc(Oc3ccccc3)c(Cl)cc2F)c1=O [Compound 2-16]
RICE crop damage, phytotoxicity rating (0-100 scale) ([1]; 125 g ai/ha): 0
RICE crop damage, phytotoxicity rating (0-100 scale) ([1]; 250 g ai/ha): 0
CORN crop damage, phytotoxicity rating (0-100 scale) ([2]; 125 g ai/ha): 0
CORN crop damage, phytotoxicity rating (0-100 scale) ([2]; 250 g ai/ha): 5
SOY crop damage, phytotoxicity rating (0-100 scale) ([3]; 125 g ai/ha): 0
SOY crop damage, phytotoxicity rating (0-100 scale) ([3]; 250 g ai/ha): 0
CORN crop damage, phytotoxicity rating (0-100 scale) ([4]; 125 g ai/ha): 0
CORN crop damage, phytotoxicity rating (0-100 scale) ([4]; 250 g ai/ha): 0
IPOHE phytotoxicity rating (0-100 scale) ([5]; 125 g ai/ha): 0
IPOHE phytotoxicity rating (0-100 scale) ([5]; 250 g ai/ha): 10
SORHA phytotoxicity rating (0-100 scale) ([6]; 125 g ai/ha): 35
SORHA phytotoxicity rating (0-100 scale) ([6]; 250 g ai/ha): 75
AMARE phytotoxicity rating (0-100 scale) ([7]; 125 g ai/ha): 99
AMARE phytotoxicity rating (0-100 scale) ([7]; 250 g ai/ha): 100
ECHCG phytotoxicity rating (0-100 scale) ([8]; 125 g ai/ha): 35
ECHCG phytotoxicity rating (0-100 scale) ([8]; 250 g ai/ha): 60
SETVI phytotoxicity rating (0-100 scale) ([9]; 125 g ai/ha): 60
SETVI phytotoxicity rating (0-100 scale) ([9]; 250 g ai/ha): 95
CASOB phytotoxicity rating (0-100 scale) ([10]; 125 g ai/ha): 20
CASOB phytotoxicity rating (0-100 scale) ([10]; 250 g ai/ha): 35
AMBEL phytotoxicity rating (0-100 scale) ([11]; 125 g ai/ha): 50
AMBEL phytotoxicity rating (0-100 scale) ([11]; 250 g ai/ha): 55
CHEAL phytotoxicity rating (0-100 scale) ([12]; 125 g ai/ha): 100
CHEAL phytotoxicity rating (0-100 scale) ([12]; 250 g ai/ha): 100
ABUTH phytotoxicity rating (0-100 scale) ([13]; 125 g ai/ha): 55
ABUTH phytotoxicity rating (0-100 scale) ([13]; 250 g ai/ha): 60
DIGSA phytotoxicity rating (0-100 scale) ([14]; 125 g ai/ha): 75
DIGSA phytotoxicity rating (0-100 scale) ([14]; 250 g ai/ha): 80
IPOHE phytotoxicity rating (0-100 scale) ([15]; 125 g ai/ha): 0
IPOHE phytotoxicity rating (0-100 scale) ([15]; 250 g ai/ha): 0
SORHA phytotoxicity rating (0-100 scale) ([16]; 125 g ai/ha): 0
SORHA phytotoxicity rating (0-100 scale) ([16]; 250 g ai/ha): 0
AMARE phytotoxicity rating (0-100 scale) [17, 27]: 80
AMARE phytotoxicity rating (0-100 scale) [17, 28]: 80
ECHCG phytotoxicity rating (0-100 scale) ([18]; 125 g ai/ha): 0
ECHCG phytotoxicity rating (0-100 scale) ([18]; 250 g ai/ha): 35
SETVI phytotoxicity rating (0-100 scale) [19, 27]: 50
SETVI phytotoxicity rating (0-100 scale) [19, 28]: 50
CASOB phytotoxicity rating (0-100 scale) [20, 27]: 0
CASOB phytotoxicity rating (0-100 scale) [20, 28]: 0
AMBEL phytotoxicity rating (0-100 scale) [21, 27]: 0
AMBEL phytotoxicity rating (0-100 scale) [21, 28]: 0
CHEAL phytotoxicity rating (0-100 scale) [22, 27]: 70
CHEAL phytotoxicity rating (0-100 scale) [22, 28]: 70
ABUTH phytotoxicity rating (0-100 scale) ([23]; 125 g ai/ha): 0
ABUTH phytotoxicity rating (0-100 scale) ([23]; 250 g ai/ha): 40
DIGSA phytotoxicity rating (0-100 scale) ([24]; 125 g ai/ha): 0
DIGSA phytotoxicity rating (0-100 scale) ([24]; 250 g ai/ha): 0
RICE crop damage, phytotoxicity rating (0-100 scale) ([25]; 125 g ai/ha): 0
RICE crop damage, phytotoxicity rating (0-100 scale) ([25]; 250 g ai/ha): 0
SOY crop damage, phytotoxicity rating (0-100 scale) ([26]; 125 g ai/ha): 0
SOY crop damage, phytotoxicity rating (0-100 scale) ([26]; 250 g ai/ha): 0
